# Reference: patent publication US20260130395A1, “Water Dispersible Botanical Compositions” (Aquila Black Limited, priority 2021, published 2026)
# Test: Stability of cannabinoid compounds and Vitamin E components in Beverage 2 (AB Red) by LCMSMS
# Assay type: physicochemical
structure (smiles),measurement,setting,value
CC(=O)Oc1c(C)c(C)c2c(c1C)CCC(C)(CCC[C@H](C)CCC[C@H](C)CCCC(C)C)O2 (stereo partly drawn) [α-Tocopheryl acetate],Stability of Vitamin Es in AB Red,"stored at 8° C., 0 days",12.5 µg/mL
same,Stability of Vitamin Es in AB Red,"stored at 8° C., 1 days",11.6 µg/mL
same,Stability of Vitamin Es in AB Red,"stored at 8° C., 2 days",11.5 µg/mL
same,Stability of Vitamin Es in AB Red,"stored at 8° C., 3 days",11.6 µg/mL
same,Stability of Vitamin Es in AB Red,"stored at 8° C., 5 days",12.3 µg/mL
same,Stability of Vitamin Es in AB Red,"stored at 8° C., 8 days",12.2 µg/mL
same,Stability of Vitamin Es in AB Red,"stored at 8° C., 9 days",12.1 µg/mL
same,Stability of Vitamin Es in AB Red,"stored at 8° C., 10 days",12.6 µg/mL
same,Stability of Vitamin Es in AB Red,"stored at 8° C., 11 days",11.9 µg/mL
same,Stability of Vitamin Es in AB Red,"stored at 8° C., 12 days",12.4 µg/mL
same,Stability of Vitamin Es in AB Red,"stored at 8° C., 15 days",12.0 µg/mL
same,Stability of Vitamin Es in AB Red,"stored at 8° C., 16 days",11.5 µg/mL
same,Stability of Vitamin Es in AB Red,"stored at 8° C., 17 days",11.8 µg/mL
same,Stability of Vitamin Es in AB Red,"stored at 8° C., 18 days",12.5 µg/mL
same,Stability of Vitamin Es in AB Red,"stored at 8° C., 19 days",12.5 µg/mL
same,Stability of Vitamin Es in AB Red,"stored at 8° C., 22 days",12.5 µg/mL
same,Stability of Vitamin Es in AB Red,"stored at 8° C., 23 days",11.9 µg/mL
same,Stability of Vitamin Es in AB Red,"stored at 8° C., 24 days",12.6 µg/mL
same,Stability of Vitamin Es in AB Red,"stored at 8° C., 25 days",12.3 µg/mL
same,Stability of Vitamin Es in AB Red,"stored at 8° C., 26 days",11.6 µg/mL
same,Stability of Vitamin Es in AB Red,"stored at 8° C., 29 days",11.7 µg/mL
same,Stability of Vitamin Es in AB Red,"stored at 8° C., 30 days",12.1 µg/mL
same,Stability of Vitamin Es in AB Red,"stored at 8° C., 60 days",11.4 µg/mL
same,Stability of Vitamin Es in AB Red,"stored at 8° C., 90 days",11.6 µg/mL
same,Stability of Vitamin Es in AB Red,"stored at 8° C., 120 days",11.7 µg/mL
same,Stability of Vitamin Es in AB Red,"stored at 8° C., 150 days",12.3 µg/mL
same,Stability of Vitamin Es in AB Red,"stored at 8° C., 180 days",12.6 µg/mL
same,Stability of Vitamin Es in AB Red,"stored at 8° C., 210 days",11.8 µg/mL
same,Stability of Vitamin Es in AB Red,"stored at 8° C., 240 days",11.2 µg/mL
same,Stability of Vitamin Es in AB Red,"stored at 8° C., 270 days",11.6 µg/mL
same,Stability of Vitamin Es in AB Red,"stored at 8° C., 300 days",11.2 µg/mL
same,Stability of Vitamin Es in AB Red,"stored at 8° C., 330 days",11.3 µg/mL
same,Stability of Vitamin Es in AB Red,"stored at 8° C., 360 days",11.3 µg/mL
same,Stability of Vitamin Es in AB Red,"stored at 8° C., 390 days",11.4 µg/mL
same,Stability of Vitamin Es in AB Red,"stored at 8° C., 420 days",11.2 µg/mL
same,Stability of Vitamin Es in AB Red,"stored at 8° C., 450 days",11.4 µg/mL
same,Stability of Vitamin Es in AB Red,"stored at 8° C., 480 days",10.7 µg/mL
same,Stability of Vitamin Es in AB Red,"stored at 8° C., 510 days",10.6 µg/mL
same,Stability of Vitamin Es in AB Red,"stored at 8° C., 540 days",10.8 µg/mL
same,Stability of Vitamin Es in AB Red,"stored at 8° C., 570 days",10.8 µg/mL
same,Stability of Vitamin Es in AB Red,"stored at 21-25° C., 0 days",12.5 µg/mL
same,Stability of Vitamin Es in AB Red,"stored at 21-25° C., 1 days",12.1 µg/mL
same,Stability of Vitamin Es in AB Red,"stored at 21-25° C., 2 days",12.5 µg/mL
same,Stability of Vitamin Es in AB Red,"stored at 21-25° C., 3 days",11.7 µg/mL
same,Stability of Vitamin Es in AB Red,"stored at 21-25° C., 5 days",12.2 µg/mL
same,Stability of Vitamin Es in AB Red,"stored at 21-25° C., 8 days",11.4 µg/mL
same,Stability of Vitamin Es in AB Red,"stored at 21-25° C., 9 days",11.6 µg/mL
same,Stability of Vitamin Es in AB Red,"stored at 21-25° C., 10 days",12.5 µg/mL
same,Stability of Vitamin Es in AB Red,"stored at 21-25° C., 11 days",12.3 µg/mL
same,Stability of Vitamin Es in AB Red,"stored at 21-25° C., 12 days",12.3 µg/mL
same,Stability of Vitamin Es in AB Red,"stored at 21-25° C., 15 days",12.1 µg/mL
same,Stability of Vitamin Es in AB Red,"stored at 21-25° C., 16 days",12.1 µg/mL
same,Stability of Vitamin Es in AB Red,"stored at 21-25° C., 17 days",11.3 µg/mL
same,Stability of Vitamin Es in AB Red,"stored at 21-25° C., 18 days",12.0 µg/mL
same,Stability of Vitamin Es in AB Red,"stored at 21-25° C., 19 days",12.0 µg/mL
same,Stability of Vitamin Es in AB Red,"stored at 21-25° C., 22 days",12.1 µg/mL
same,Stability of Vitamin Es in AB Red,"stored at 21-25° C., 23 days",11.7 µg/mL
same,Stability of Vitamin Es in AB Red,"stored at 21-25° C., 24 days",11.5 µg/mL
same,Stability of Vitamin Es in AB Red,"stored at 21-25° C., 25 days",12.4 µg/mL
same,Stability of Vitamin Es in AB Red,"stored at 21-25° C., 26 days",12.0 µg/mL
same,Stability of Vitamin Es in AB Red,"stored at 21-25° C., 29 days",11.9 µg/mL
same,Stability of Vitamin Es in AB Red,"stored at 21-25° C., 30 days",12.6 µg/mL
same,Stability of Vitamin Es in AB Red,"stored at 21-25° C., 60 days",11.6 µg/mL
same,Stability of Vitamin Es in AB Red,"stored at 21-25° C., 90 days",12.3 µg/mL
same,Stability of Vitamin Es in AB Red,"stored at 21-25° C., 120 days",12.3 µg/mL
same,Stability of Vitamin Es in AB Red,"stored at 21-25° C., 150 days",11.4 µg/mL
same,Stability of Vitamin Es in AB Red,"stored at 21-25° C., 180 days",12.0 µg/mL
same,Stability of Vitamin Es in AB Red,"stored at 21-25° C., 210 days",11.6 µg/mL
same,Stability of Vitamin Es in AB Red,"stored at 21-25° C., 240 days",11.3 µg/mL
same,Stability of Vitamin Es in AB Red,"stored at 21-25° C., 270 days",11.4 µg/mL
same,Stability of Vitamin Es in AB Red,"stored at 21-25° C., 300 days",11.2 µg/mL
same,Stability of Vitamin Es in AB Red,"stored at 21-25° C., 330 days",11.6 µg/mL
same,Stability of Vitamin Es in AB Red,"stored at 21-25° C., 360 days",11.1 µg/mL
same,Stability of Vitamin Es in AB Red,"stored at 21-25° C., 390 days",11.3 µg/mL
same,Stability of Vitamin Es in AB Red,"stored at 21-25° C., 420 days",11.3 µg/mL
same,Stability of Vitamin Es in AB Red,"stored at 21-25° C., 450 days",11.2 µg/mL
same,Stability of Vitamin Es in AB Red,"stored at 21-25° C., 480 days",10.4 µg/mL
same,Stability of Vitamin Es in AB Red,"stored at 21-25° C., 510 days",10.4 µg/mL
same,Stability of Vitamin Es in AB Red,"stored at 21-25° C., 540 days",10.6 µg/mL
same,Stability of Vitamin Es in AB Red,"stored at 21-25° C., 570 days",10.6 µg/mL
